How the values were obtained:
[1] = Post-prandial blood glucose concentration in rats; type: in vivo
[2] = target: α-glucosidase (E.C.3.2.1.20); assay: α-Glucosidase enzyme inhibition assay (PNP-G substrate, spectrophotometric); type: biochemical
Protocol: α-Glucosidase (E.C.3.2.1.20) enzyme inhibition assay was performed according to the slightly modified method of Matsui et al. α-glucosidase (E.C.3.2.1.20) from Saccharomyces species, purchased from Wako Pure Chemical Industries Ltd. (Wako 076-02841). The enzyme inhibition was measured spectrophotometrically at pH 6.9 and at 37° C. using 0.7 mM p-nitrophenyl-α-D-glucopyranoside (PNP-G) as a substrate and 500 m units/mL enzyme, in 50 mM sodium phosphate buffer containing 100 mM NaCl. […] The increment in absorption at 400 nm, due to the hydrolysis of PNP-G by α-glucosidase, was monitored continuously on microplate spectrophotometer (Spectra Max Molecular Devices, USA).) [T. Matsui, C. Yoshimoto, K. Osajima, T. Oki, and Y. Osajima. Biosci. Biotech. Biochem., 1996, 60, 2019].

## CC(=O)OC1CCC2(C)C(CCC3(C)C2CC=C2C4CC(C)(C)CCC4(C)CCC23C)C1(C)C (stereo not drawn) [β-Amyrin acetate, 12-Oleanen-3-yl acetate]
[1]
  post-prandial blood glucose concentration: reduced
[2]; pH 6.9, 37° C., 0.7 mM PNP-G substrate, 500 m units/mL enzyme
  IC50: 22.27 ± 0.112 µM
[2]; α-glucosidase inhibition, relative to acarbose
  potency compared with Acarbose (times): approximately 35 times

From patent US20080103201A1, “Novel alpha-Glucosidase inhibitor from Tabernaemontana dichotoma” (priority 2006, published 2008)
